Assays:
[1] = tested on: uterine contractions in human subjects; assay: Uterine contractility in human subjects (Example 4); conditions: in vivo
Text: Values along the y-axis represent the quantity of uterine contractions (UC) per minute.

uterine contractions = assay: Uterine contractions by ultrasound in healthy female volunteers; assay type: in vivo, human; conditions: 1,800 mg dose
Method: (§1) Particularly, subjects were pre-treated with estradiol valerate at a dosage of 2 mg administered 3 times per day (TID) for 16 days. Administration of estradiol valerate was followed by vaginal progesterone at a dosage of 200 mg administered TID.
(§2) These assessments included measurements of uterine contractions by ultrasound and uterine perfusion by a 3D-power Doppler technique.
(§3) Mean and median changes in uterine contraction frequency and endometrial vascularity indices (particularly, endometrial flow index (FI), vascularity index (VI), and vascularity flow index (VFI)) were calculated. […] Differences in endometrial mRNA expression were identified and assessed for statistical significance.

[2] = tested on: endometrial blood flow in human subjects; assay: Endometrial blood flow in human subjects (Example 4); conditions: in vivo
Text: Values along the y-axis represent endometrial flow index (FI), a parameter that is proportional to the volumetric quantity of blood that circulates through the endometrium in a given period of time.
Values along the y-axis represent endometrial vascularity index (VI), a parameter that is proportional to the total quantity of blood vessels in a subject's endometrium.
Values along the y-axis represent vascularity flow index (VFI), a parameter that is proportional to the total quantity of blood that circulates through a given volume of a subject's endometrium.

endometrial perfusion = assay: Uterine perfusion by 3D-power Doppler in healthy female volunteers; assay type: in vivo, human; conditions: baseline to 24 hours; both 900 mg and 1,800 mg doses
Method: as §1, §2, §3

[3] = tested on: female human subjects undergoing embryo transfer therapy; assay: Clinical studies of embryo implantation in subjects undergoing embryo transfer therapy (Example 1); assay type: in vivo
Text: (§4) A total of 247 female subjects were selected for treatment based on a variety of inclusion criteria. Of these, 244 subjects completed the study. The study was open to healthy female volunteers from 18 to 36 years of age that had previously undergone up to one IVF or ICSI cycle that resulting in a negative pregnancy test as assessed by hCG detection, despite the transfer of at least one embryo of good quality, which was defined as an embryo having from six to eight blastomeres of uniform size and shape on the day of embryo transfer, ooplasm having no granularity, absence of multinucleation, and a maximum fragmentation of 10%. Subjects included in the study had at least one functional ovary and were capable of communicating with the investigator and research staff and complying with the requirements of the study protocol. Data are presented in the form of mean (standard deviation).
Subjects included in the study underwent an initial screening period beginning up to 12 weeks prior to the day of oocyte retrieval from the subject. During this 12-week period, subjects underwent physical and gynecological examination in preparation for oocyte retrieval. […]
(§5) The embryo transfer procedure was conducted three days after the oocyte retrieval day (OPU+3 days). Subjects undergoing embryo transfer were monitored prior to initiating the procedure. […]

[4] = tested on: endometrial RNA transcript expression; assay: Endometrial RNA transcript expression by RNA-Seq in healthy female volunteers; assay type: in vivo, human; conditions: 900 mg
Method: as §1, §2, §3
Using an RNA-Seq assay, each subject's expression of a variety of genes, including DPP4, CNTNAP3, CNTN4, CXCL12, TNXB, CTSE, OLFM4, KRT5, KRT6A, and IDO2, was then assessed to determine whether the expression of each gene increased, decreased, or underwent no significant change due to administration of the compound or placebo.

[5] = tested on: spontaneous uterine contractions; conditions: cited from earlier work
[6] = tested on: subjects undergoing embryo transfer; assay: Pregnancy and live birth rates, clinical study in subjects undergoing embryo transfer; assay type: in vivo, human; conditions: post hoc, pre-dose serum P4 quartiles 1-3; significant dose-dependent fashion (p<0.02)
Method: From one to two embryos of good quality were transferred to each subject. To reduce uterine contractions at the time of embryo transfer, soft or ultra-soft catheters were used and contact with the uterine fundus was avoided. Any difficulties that occurred during the embryo transfer procedure were recorded, including instances in which uterine sounding or cervical dilation were required, instances in which a harder catheter was required, or instances in which blood was found in any part of the catheter.
Approximately 1 hour following embryo transfer, subjects underwent a final physical examination and were subsequently discharged from the clinical unit until the first follow-up visit, which occurred at about 14 days following oocyte retrieval (OPU+14 days). At this time, subjects underwent a physical examination as well as a blood sample analysis to assess pregnancy by detection of hCG. […] Pregnancy status was monitored by detecting embryo heartbeat. […]
Positive blood pregnancy test at 14 days following oocyte retrieval and positive embryo heartbeat at 10 weeks following oocyte retrieval were assessed in the same manner as described above. Change from baseline to the time of embryo transfer in uterine contraction rate was analyzed by the Wilcoxon Rank Sum Test by comparing the uterine contraction rate associated with each dose to that observed with placebo-treated subjects.

[7] = Concentration of compound (II) after single oral dose in healthy female volunteers; assay type: in vivo, human; conditions: oral administration of either the 900 mg or the 1,800 mg dose; FIG. 6
Method: as §1

[8] = Phase 2 clinical study of Example 1: serum level of compound (II) at embryo transfer; assay type: in vivo; conditions: female, human, mean
Text: as §4
Subjects included in the study underwent an initial screening period beginning up to 12 weeks prior to the day of oocyte retrieval from the subject. During this 12-week period, subjects underwent physical and gynecological examination in preparation for oocyte retrieval. This analysis included a recordation of the subjects' vital signs, hematology and biochemistry analysis of blood samples withdrawn from the subjects, urinary analysis, and a comprehensive review of the subjects' medical histories.
At the conclusion of the screening period, subjects underwent controlled ovarian hyperstimulation by administration of a GnRH antagonist so as to prevent a premature rise in serum LH concentration. Concurrent pre-treatment with an oral contraceptive prior to controlled ovarian hyperstimulation was allowed, but not required. Final follicular maturation was performed with a single administration of hCG to the subject. […]
as §5

CYP3A4 = CYP3A4 (Homo sapiens, UniProt P08684); assay: Metabolism by CYP3A4 isoform; assay type: in vitro ADME; conditions: substantially pure compound (II)
CYP3A4, sequence (P08684 whole entry, canonical isoform): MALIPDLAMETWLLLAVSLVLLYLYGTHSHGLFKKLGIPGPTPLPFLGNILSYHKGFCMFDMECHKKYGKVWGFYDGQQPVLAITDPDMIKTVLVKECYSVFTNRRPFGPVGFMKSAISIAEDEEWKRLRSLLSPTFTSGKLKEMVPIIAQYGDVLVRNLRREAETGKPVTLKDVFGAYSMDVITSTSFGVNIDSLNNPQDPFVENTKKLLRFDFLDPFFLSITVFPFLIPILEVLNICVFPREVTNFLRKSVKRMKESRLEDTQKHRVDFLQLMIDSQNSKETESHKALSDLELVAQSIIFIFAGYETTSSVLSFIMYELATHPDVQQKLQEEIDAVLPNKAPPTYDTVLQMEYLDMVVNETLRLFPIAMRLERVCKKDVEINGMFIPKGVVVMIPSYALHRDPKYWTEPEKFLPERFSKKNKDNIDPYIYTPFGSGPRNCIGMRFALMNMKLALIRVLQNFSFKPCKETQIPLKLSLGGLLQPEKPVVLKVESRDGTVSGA
Method: (§6) At five time points over the course of a 45 minute experiment, the compounds were analyzed by LC-MS/MS. The percentage of each compound remaining at each time point, along with the metabolic half-lives of each compound in the presence of each cytochrome P450 isoform, are indicated in Tables 10-12, below.

CYP2D6 = CYP2D6 (Homo sapiens, UniProt P10635); assay: Metabolism by CYP2D6 isoform; assay type: in vitro ADME; conditions: substantially pure (3E) diastereomer; also CYP2C19
CYP2D6, sequence (P10635 whole entry, canonical isoform): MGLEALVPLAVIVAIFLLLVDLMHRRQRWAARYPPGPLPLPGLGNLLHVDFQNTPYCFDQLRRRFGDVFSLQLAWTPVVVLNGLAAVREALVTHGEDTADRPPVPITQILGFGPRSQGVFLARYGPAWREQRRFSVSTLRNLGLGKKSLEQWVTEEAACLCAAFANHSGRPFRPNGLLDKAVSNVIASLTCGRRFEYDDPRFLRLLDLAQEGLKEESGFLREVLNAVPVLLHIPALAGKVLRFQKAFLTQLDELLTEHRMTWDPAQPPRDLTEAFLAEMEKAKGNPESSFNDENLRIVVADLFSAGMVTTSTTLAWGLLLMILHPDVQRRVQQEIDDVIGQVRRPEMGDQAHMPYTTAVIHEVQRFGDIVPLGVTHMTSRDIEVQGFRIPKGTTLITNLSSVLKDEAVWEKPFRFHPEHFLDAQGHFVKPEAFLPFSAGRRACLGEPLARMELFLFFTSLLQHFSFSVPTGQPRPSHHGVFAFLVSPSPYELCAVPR
Method: as §6

[9] = crystal form with XRPD peaks of Table 1; cited from earlier work

Q: Which results are given for CO/N=C1/C[C@@H](CO)N(C(=O)c2ccc(-c3ccccc3C)cc2)C1 [compound (II), (3Z,5S)-5-(hydroxymethyl)-1-[(2′-methyl-1,1′-biphenyl-4-yl)carbonyl]pyrrolidin-3-one O-methyloxime]?
A: uterine contractility [1]: reduce uterine contractility; Proportion of subjects showing less than one uterine contraction per minute versus placebo (uterine contractions; p=0.0121): significance was seen at the 8-hour time point; Number of uterine contractions per minute versus placebo (uterine contractions; p=0.0923 at 4 hours, p=0.0081 at 8 hours): contraction-reducing effects were observed from the 4-hour time point onwards; flow of blood to the endometrium [2]: augment the flow of blood to the endometrium; Endometrial perfusion parameters, median values (endometrial perfusion): marked and sustained increases in median values; successful embryo implantation rate ([3]; dose-dependent, particularly strong at pre-treatment serum P4 below 320 nM): improve successful embryo implantation rate; risk of embryo implantation failure ([3]; human subjects that previously underwent ovarian hyperstimulation and oocyte retrieval): reduce the risk of embryo implantation failure; mRNA expression in endometrial biopsy tissue compared to placebo [4]: No differences in mRNA expression; Reduction in spontaneous uterine contractions ([5]; 10, 30, and 60 mg/kg, anesthetized late-term pregnant rats): dose-dependent reduction in spontaneous uterine contractions; Inhibitory activity with respect to uterine contraction versus (3E) diastereomer ([5]; same vehicle, same model organism): markedly higher than that of the substantially pure (3E) diastereomer; Pregnancy and live-birth rates versus placebo group [6]: overall increase in pregnancy and live-birth rates in the treatment arms versus the placebo group; Time at which maximum concentration is reached [7]: about 4 hours; concentration at 4 hours ([8]; 100 mg oral dose about 4 hours prior to embryo transfer, n = 62): 484 ng/mL; concentration at 4 hours ([8]; 300 mg oral dose about 4 hours prior to embryo transfer, n = 60): 1450 ng/mL; concentration at 4 hours ([8]; 900 mg oral dose about 4 hours prior to embryo transfer, n = 60): 4160 ng/mL; Preferential metabolism by cytochrome P450 isoform (CYP3A4): preferentially metabolized by cytochrome P450 isoform 3A4 (CYP3A4)

Q: Which “Preferential metabolism by cytochrome P450 isoform” value (CYP2D6) does the source give for CO/N=C1\C[C@@H](CO)N(C(=O)c2ccc(-c3ccccc3C)cc2)C1 [(3E) isomer, (3E,5S)-5-(hydroxymethyl)-1-[(2′-methyl-1,1′-biphenyl-4-yl)carbonyl]pyrrolidin-3-one O-methyloxime] here?
A: preferentially metabolized by cytochrome P450 isoforms 2D6 (CYP2D6) and 2C19 (CYP2C19)

Q: With CO/N=C1/C[C@@H](CO)N(C(=O)c2ccc(-c3ccccc3C)cc2)C1 [crystal form of compound (II), (3Z,5S)-5-(hydroxymethyl)-1-[(2′-methyl-1,1′-biphenyl-4-yl)carbonyl]pyrrolidin-3-one O-methyloxime] as the molecule, how does the “stability to aqueous media and physical stress” value [9] read?
A: enhanced stability to aqueous media and physical stress

Source: patent US20220323410A1, “OXYTOCIN ANTAGONIST DOSING REGIMENS FOR PROMOTING EMBRYO IMPLANTATION AND PREVENTING MISCARRIAGE” (ObsEva S.A., priority 2019, published 2022)
